One assay concerns MYB mRNA. Description: Splicing RT-qPCR assay, canonical (CJ) and alternative (AJ) junction mRNA, K562 cells. Type of assay: cell-based. Particulars: Homo sapiens, K562.3 cells, 24 hours; for AC50: read-out: MYB AJ (AC50, increase in AJ mRNA); for IC50: read-out: MYB CJ (IC50, decrease in CJ mRNA). An outline of the steps:
(§1)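 Splicing switches are measured in K562 cells exposed to compound for 24 h (top 10 uM final, 11 points, 3-fold). Lysates go straight into one-step RT-qPCR, and transcript levels are normalized to GAPDH or GUSB and to DMSO before conversion to percentage response using fixed ΔCt assay windows.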

The test system of the next assay is HTT mRNA. The description is as above. In kind it is cell-based. The following applies: Homo sapiens, K562.3 cells, 24 hours; for AC50: read-out: HTT AJ (AC50, increase in AJ mRNA); for IC50: read-out: HTT CJ (IC50, decrease in CJ mRNA). The method in brief: as §1

Among the data in patent US20260285853A1, “COMPOUNDS AND METHODS FOR MODULATING SPLICING” (REMIX THERAPEUTICS INC., priority 2023, published 2026) are AC50 and IC50 values, retold here.

As usually defined, the AC50 is the midpoint of the concentration-response curve, whichever way the signal moves. As usually defined, the IC50 is the concentration that inhibits the measured activity by half.

Counter-ions that a name gives are not always drawn.

In the case of `CCNC1CCN(c2ccc(C(=O)Nc3cn4cc(C)nc4c(OC)n3)c3nn(C)cc23)CC1` [Compound 206, 4-[4-(ethylamino)-1-piperidyl]-N-(8-methoxy-2-methyl-imidazo[1,2-a]pyrazin-6-yl)-2-methyl-indazole-7-carboxamide], in the assay with MYB mRNA, the AC50 was under 0.1 µM and the IC50 is under 0.1 µM. Also, in the assay on HTT mRNA, the AC50 fell in the range of 0.1 to 1 µM and the IC50 fell in the range of 0.1 to 1 µM.
Turning to `COc1c(NC(=O)c2c(F)cc(N3CCC(NC4CC4)CC3)c3cn(C)nc23)cn2cc(C)nc2c1F` [Compound 207, 4-[4-(cyclopropylamino)-1-piperidyl]-6-fluoro-N-(8-fluoro-7-methoxy-2-methyl-imidazo[1,2-a]pyridin-6-yl)-2-methyl-indazole-7-carboxamide], in the assay with MYB mRNA, the AC50 was under 0.1 µM and the IC50 was under 0.1 µM. In the assay on HTT mRNA, the AC50 was under 0.1 µM and the half-maximal inhibitory concentration (IC50) is under 0.1 µM.
Take `COc1nc2c(C(=O)Nc3cc(F)c4nc(C)cn4c3)ccc(N3CCC(N)CC3)c2s1` [Compound 208, 7-(4-aminopiperidin-1-yl)-N-(8-fluoro-2-methylimidazo[1,2-a]pyridin-6-yl)-2-methoxybenzo[d]thiazole-4-carboxamide]: the AC50 was under 0.1 µM with MYB mRNA and 0.1 to 1 µM with HTT mRNA. The values for the IC50 in the assay with MYB mRNA and with HTT mRNA were under 0.1 µM and 0.1 to 1 µM, respectively.
As to `Cc1cn2cc(NC(=O)c3ccc(N4CCC(NC5CC5)CC4)c4cc(C)nn34)cc(F)c2n1` [Compound 209, 4-[4-(cyclopropylamino)-1-piperidyl]-N-(8-fluoro-2-methyl-imidazo[1,2-a]pyridin-6-yl)-2-methyl-pyrazolo[1,5-a]pyridine-7-carboxamide], in the assay with MYB mRNA, the AC50 was under 0.1 µM and the IC50 is under 0.1 µM. In the assay on HTT mRNA, the AC50 fell in the range of 0.1 to 1 µM and the IC50 lay in the range of 0.1 to 1 µM.
`Cc1cn2cc(NC(=O)c3ccc(N4CCC(NC5CC5)CC4)n4cc(C)nc34)cc(F)c2n1` [Compound 210, 5-(4-(cyclopropylamino)piperidin-1-yl)-N-(8-fluoro-2-methylimidazo[1,2-a]pyridin-6-yl)-2-methylimidazo[1,2-a]-pyridine-8-carboxamide]: in the assay on MYB mRNA, the AC50 was 0.1 to 1 µM and the IC50 was under 0.1 µM. In the assay on HTT mRNA, the AC50 lay in the range of 0.1 to 1 µM and the IC50 lay in the range of 0.1 to 1 µM.
In the case of `Cc1cn2cc(NC(=O)c3ccc(N4C[C@@H](C)N[C@@H](C)C4)c4[nH]cnc34)cc(F)c2n1` [Compound 220, 7-[(3R,5S)-3,5-dimethylpiperazin-1-yl]-N-(8-fluoro-2-methyl-imidazo[1,2-a]pyridin-6-yl)-1H-1,3-benzodiazole-4-carboxamide], the AC50 is 0.1 to 1 µM in the assay on MYB mRNA and over 10 µM with HTT mRNA. The IC50 was 0.1 to 1 µM with MYB mRNA and 1 to 10 µM with HTT mRNA.
On to `Cc1cn2cc(NC(=O)c3ccc(N4C[C@H](C)N[C@@H](C)C4)c4[nH]cnc34)cc(F)c2n1` [Compound 221, 7-[(3S,5S)-3,5-dimethylpiperazin-1-yl]-N-(8-fluoro-2-methylimidazo[1,2-a]pyridin-6-yl)-1H-1,3-benzodiazole-4-carboxamide], for which, in the assay on MYB mRNA, the AC50 lay in the range of 0.1 to 1 µM and the IC50 is 0.1 to 1 µM. Also, in the assay with HTT mRNA, the AC50 is over 10 µM and the IC50 is over 10 µM.
For `Cc1cn2cc(NC(=O)c3ccc(N4C[C@@H](C)N[C@@H](C)C4)c4[nH]c(C)nc34)cc(F)c2n1` [Compound 225, 7-[(3R,5S)-3,5-dimethylpiperazin-1-yl]-N-(8-fluoro-2-methylimidazo[1,2-a]pyridin-6-yl)-2-methyl-1H-1,3-benzodiazole-4-carboxamide], in the assay with MYB mRNA, the AC50 fell in the range of 1 to 10 µM and the IC50 fell in the range of 1 to 10 µM. In addition, in the assay on HTT mRNA, the AC50 was in the range of 1 to 10 µM and the IC50 was 1 to 10 µM.
Consider `Cc1cn2nc(C(=O)Nc3ccc(N4C[C@@H](C)N[C@@H](C)C4)c4cc[nH]c34)cc(C)c2n1` [Compound 237, N-(4-[(3R,5S)-3,5-dimethylpiperazin-1-yl]-1H-indol-7-yl)-2,8-dimethylimidazo[1,2-b]pyridazine-6-carboxamide], for which, in the assay with MYB mRNA, the AC50 was in the range of 1 to 10 µM and the IC50 was 1 to 10 µM. For the same compound, in the assay with HTT mRNA, the AC50 is 1 to 10 µM and the IC50 lay in the range of 1 to 10 µM.
`Cc1cn2cc(NC(=O)c3ccc(N4C[C@H](C)N[C@@H](C)C4)c4[nH]nnc34)cc(F)c2n1` [Compound 242, 7-[(3S,5S)-3,5-dimethylpiperazin-1-yl]-N-(8-fluoro-2-methyl-imidazo[1,2-a]pyridin-6-yl)-1H-benzotriazole-4-carboxamide]: in the assay on MYB mRNA, the AC50 is over 10 µM and the IC50 is over 10 µM. Besides, in the assay on HTT mRNA, the AC50 was over 10 µM and the IC50 was over 10 µM.
In the case of `Cc1cn2cc(NC(=O)c3ccc(N4C[C@@H](C)N[C@@H](C)C4)c4[nH]nnc34)cc(F)c2n1` [Compound 243, 7-((3S,5R)-3,5-dimethylpiperazin-1-yl)-N-(8-fluoro-2-methylimidazo[1,2-a]pyridin-6-yl)-1H-benzo[d][1,2,3]-triazole-4-carboxamide hydrochloride], in the assay with MYB mRNA, the AC50 is over 10 µM and the IC50 is over 10 µM. Also, in the assay with HTT mRNA, the AC50 is over 10 µM and the IC50 is over 10 µM.
Regarding `Cc1cn2cc(NC(=O)c3c(F)cc(N4CCNCC4)c4occc34)cc(F)c2n1` [Compound 247, 5-fluoro-N-(8-fluoro-2-methylimidazo-[1,2-a]pyridin-6-yl)-7-piperazin-1-yl-benzofuran-4-carboxamide], in the assay on MYB mRNA, the AC50 was over 10 µM and the IC50 was over 10 µM. Besides, in the assay with HTT mRNA, the AC50 is over 10 µM and the IC50 was over 10 µM.
Consider `Cc1cn2cc(NC(=O)c3ccc(N4CCNC(C(F)(F)F)C4)c4cn(C)nc34)cc(F)c2n1` (stereo not drawn) [Compound 248, N-(8-fluoro-2-methyl-imidazo[1,2-a]-pyridin-6-yl)-2-methyl-4-[3-(trifluoro-methyl)piperazin-1-yl]indazole-7-carboxamide], for which, in the assay on MYB mRNA, the AC50 lay in the range of 1 to 10 µM and the IC50 was in the range of 1 to 10 µM. Further, in the assay with HTT mRNA, the AC50 was over 10 µM and the IC50 is over 10 µM.
For `Cc1cn2cc(NC(=O)c3ccc(N4CCNC(C(F)F)C4)c4cn(C)nc34)cc(F)c2n1` (stereo not drawn) [Compound 249, 4-[3-(difluoromethyl)piperazin-1-yl]-N-(8-fluoro-2-methylimidazo[1,2-a]pyridin-6-yl)-2-methyl-indazole-7-carboxamide], in the assay on MYB mRNA, the AC50 is 0.1 to 1 µM and the IC50 lay in the range of 0.1 to 1 µM. In addition, in the assay with HTT mRNA, the AC50 lay in the range of 1 to 10 µM and the IC50 fell in the range of 1 to 10 µM.
`COc1cc(N2CCNCC2)c2cn(C)nc2c1C(=O)Nc1cc(F)c2nc(C)cn2c1` [Compound 250, N-(8-fluoro-2-methyl-imidazo[1,2-a]pyridin-6-yl)-6-methoxy-2-methyl-4-piperazin-1-yl-indazole-7-carboxamide]: in the assay with MYB mRNA, the AC50 is over 10 µM and the half-maximal inhibitory concentration (IC50) was over 10 µM. Moreover, in the assay on HTT mRNA, the AC50 was over 10 µM and the IC50 is over 10 µM.
Regarding `Cc1cn2cc(NC(=O)c3ccc(N4CCNCC4=O)c4cn(C)nc34)cc(F)c2n1` [Compound 251, N-(8-fluoro-2-methylimidazo[1,2-a]-pyridin-6-yl)-2-methyl-4-(2-oxopiperazin-1-yl)-2H-indazole-7-carboxamide 2,2,2-trifluoroacetate], in the assay with MYB mRNA, the AC50 is over 10 µM and the IC50 is over 10 µM. In the assay on HTT mRNA, the AC50 is over 10 µM and the IC50 is over 10 µM.
Take `Cc1cn2cc(NC(=O)c3ccc(N4C[C@@H](C)N[C@@H](C)C4)c4nn(C)nc34)cc(F)c2n1` [Compound 252, 7-((3S,5R)-3,5-dimethyl-piperazin-1-yl)-N-(8-fluoro-2-methyl-imidazo[1,2-a]pyridin-6-yl)-2-methyl-2H-benzo[d][1,2,3]triazole-4-carboxamide 2,2,2-trifluoroacetate]: the AC50 in the assay with MYB mRNA and with HTT mRNA was 0.1 to 1 µM each time. For the same compound, the IC50 in the assay with MYB mRNA and in the assay on HTT mRNA was 0.1 to 1 µM throughout.
For the compound `Cc1cn2cc(NC(=O)c3ccc(N4CCNCC4=O)c4[nH]cnc34)cc(F)c2n1` [Compound 257, N-(8-fluoro-2-methyl-imidazo[1,2-a]-pyridin-6-yl)-7-(2-oxopiperazin-1-yl)-1H-benzimidazole-4-carboxamide], the AC50 in the assay on MYB mRNA and in the assay with HTT mRNA was over 10 µM in each case. Moreover, the IC50 in the assay with MYB mRNA and in the assay with HTT mRNA was over 10 µM throughout.
Take `Cc1cn2cc(NC(=O)c3ccc(N4C[C@@H](C)N[C@@H](C)C4)c4nnn(C)c34)cc(F)c2n1` [Compound 261, 7-[(3R,5S)-3,5-dimethylpiperazin-1-yl]-N-(8-fluoro-2-methyl-imidazo[1,2-a]pyridin-6-yl)-3-methyl-benzotriazole-4-carboxamide]: in the assay with MYB mRNA, the AC50 is over 10 µM and the IC50 is over 10 µM. In addition, in the assay on HTT mRNA, the AC50 is over 10 µM and the IC50 is over 10 µM.
`CO[C@H]1C[C@H](N[C@H]2CCN(c3ccc(C(=O)Nc4cc(F)c5nc(C)cn5c4)c4nn(C)cc34)C2)C1` [Compound 275, N-(8-fluoro-2-methylimidazo[1,2-a]pyridin-6-yl)-4-((S)-3-(((1r,3S)-3-methoxycyclobutyl)amino)pyrrolidin-1-yl)-2-methyl-2H-indazole-7-carboxamide]: in the assay with MYB mRNA, the AC50 lay within 0.1 to 1 µM and the IC50 fell in the range of 0.1 to 1 µM. For the same compound, in the assay on HTT mRNA, the AC50 fell in the range of 1 to 10 µM and the IC50 lay within 1 to 10 µM.
On to `CO[C@H]1C[C@@H](N[C@H]2CCN(c3ccc(C(=O)Nc4cc(F)c5nc(C)cn5c4)c4nn(C)cc34)C2)C1` [Compound 277, N-(8-fluoro-2-methylimidazo[1,2-a]pyridin-6-yl)-4-((S)-3-(((1s,3R)-3-methoxy-cyclobutyl)amino)pyrrolidin-1-yl)-2-methyl-2H-indazole-7-carboxamide], for which, in the assay on MYB mRNA, the AC50 is 0.1 to 1 µM and the IC50 lay within 0.1 to 1 µM. Moreover, in the assay with HTT mRNA, the AC50 was under 0.1 µM and the IC50 fell in the range of 1 to 10 µM.
